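1) Cells in 96-well plates. 2) Compound, 48 h, 5 concentrations. 3) Linear interpolation between surrounding doses. 4) Unreached endpoint = highest concentration. Here, GI50 denotes the concentration required for 50% inhibition of growth. At the TGI there is no net growth.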
Tests used:
Experiment in all cases: NCI tumour cell line growth inhibition, 48 h
SF-295 CNS = test system: SF-295 CNS
MCF7 breast = test system: MCF7 breast
PC-3 prostate = test system: PC-3 prostate
SK-MEL-28 melanoma = test system: SK-MEL-28 melanoma
MALME-3M melanoma = test system: MALME-3M melanoma
RPMI-8226 leukemia = test system: RPMI-8226 leukemia
NCI-H460 lung = test system: NCI-H460 lung
BT-549 breast = test system: BT-549 breast
SR leukemia = test system: SR leukemia
HCT-116 colon = test system: HCT-116 colon

Structure (SMILES)	GI50 (SF-295 CNS) [µM]	TGI (SF-295 CNS) [µM]	GI50 (MCF7 breast) [µM]	TGI (MCF7 breast) [µM]	GI50 (PC-3 prostate) [µM]	TGI (PC-3 prostate) [µM]	GI50 (SK-MEL-28 melanoma) [µM]	TGI (SK-MEL-28 melanoma) [µM]	GI50 (MALME-3M melanoma) [µM]	TGI (MALME-3M melanoma) [µM]	GI50 (RPMI-8226 leukemia) [µM]	TGI (RPMI-8226 leukemia) [µM]	GI50 (NCI-H460 lung) [µM]	TGI (NCI-H460 lung) [µM]	GI50 (BT-549 breast) [µM]	TGI (BT-549 breast) [µM]	GI50 (SR leukemia) [µM]	TGI (SR leukemia) [µM]	GI50 (HCT-116 colon) [µM]	TGI (HCT-116 colon) [µM]
Oc1c(CN2CCN(c3ccccc3F)CC2)cc(Br)c2cccnc12	2.92	42.1	0.473	12.1	0.807	31.7	2.49	> 100	1.89	9.46	0.791	15.6	0.4	9.26	2.02	> 100	0.419	5.17	0.546	> 40.7
COc1ccc2c(c1)C(=O)c1c-2c(NCCN(C)C)nc2ccccc12	3.83	17.5	2	12.2	2.93	14.2	13.9	26.9	12.4	32.7	1.21	4.53	0.671	10.6	5.99	19.3	0.35	2.66	15.1	28.3
O=S(=O)(Nc1ccccn1)c1ccc(N=Nc2ccc(O)c3ncccc23)cc1	2.14	4.86	1.05	8.4	1.29	> 100	1.72	26	2.59	7.03	0.748	27.7	0.891	4.59	1.25	7.04	0.647	19.3	0.888	22.6
COc1ccc(C2CC(=O)c3c(O)c(OC)c(OC)c(OC)c3O2)cc1O (stereo not drawn)	0.374	> 100	0.124	> 100	0.0642	> 100	14.4	> 100	32.8	> 100	0.286	> 77.5	0.195	–	0.0745	31.2	0.0467	> 100	0.103	> 100
CSC1(CC(=O)N2CCCCC2)C(=O)Nc2ccccc21 (stereo not drawn)	–	> 100	–	> 100	–	> 100	–	> 100	–	> 100	–	> 100	–	> 100	–	> 100	–	–	–	> 100
C[C@@H]1OCC2(CCN(c3cnc(Sc4ccnc(N)c4Cl)c(N)n3)CC2)[C@@H]1N	> 100	> 100	> 100	> 100	> 100	> 100	> 100	> 100	> 100	> 100	37.6	> 100	> 100	> 100	34.6	> 100	–	–	> 100	> 100
Nc1ccc(-c2ccc(-c3nc4cc(Cl)c(Cl)cc4[nH]3)cc2)cc1	0.419	–	0.377	> 100	7.99	> 61.2	13.4	> 100	8.02	> 63.4	1.85	38.4	0.878	> 31.9	27.4	> 100	0.181	45.2	0.503	> 100
O=c1ccnc(SCc2ccc(Cl)cc2)[nH]1	–	> 100	–	> 100	–	> 100	–	> 100	–	> 100	–	> 100	–	> 100	–	> 100	–	> 100	–	> 100
Nc1c2ccccc2nc2ccccc12 (tested in a mixture with another compound)	2.1	10.5	1.59	9.72	2.44	11.1	1.99	3.86	2.34	5.28	3.86	> 100	2.12	8.99	4.42	17.6	–	–	0.849	8.48
Nc1nc(-c2ccccc2)cc(-c2ccc(Cl)cc2)c1-c1nc2ccccc2o1	20.5	37.7	2.31	16.2	2.95	14.2	17	32.6	19.2	35.3	4.82	19.8	7.44	23.6	15.5	29.7	3.08	8.11	7.41	20.2
COC1=C(OC)[C@]2(OC)c3c(O)c(OC)c4c(c3O[C@@]23O[C@@H](c2ccccc2)CC=C3C1=O)[C@@H](O)C[C@H](c1ccccc1)O4	1.78	3.57	0.321	1.67	0.466	1.03	0.318	1	0.377	1.33	0.0714	0.597	1.42	2.97	0.394	1.21	0.229	0.612	0.183	0.38
C/C(=C\c1ccn(-c2ccc(N)cc2F)n1)[C@@H]1C[C@@H]2O[C@]2(C)CCC[C@H](C)[C@H](O)[C@@H](C)C(=O)C(C)(C)[C@@H](O)CC(=O)O1	0.0576	> 50	< 0.0119	> 50	0.0256	> 50	1.05	> 50	–	–	0.0204	> 50	0.0197	> 50	0.0943	> 50	0.0236	> 50	0.0169	> 50
COc1cc(N2CCC(N3CCN(C)CC3)CC2)ccc1Nc1ncc(Cl)c(Nc2ccccc2S(=O)(=O)C(C)C)n1	1.8	10.3	0.114	6.75	2.16	11.7	1.74	3.41	1.32	3.46	0.924	6.46	0.604	5.11	2.09	5.6	–	–	0.358	1.64
CC(C)(C)c1cc(-c2nc3c(F)c(F)c(F)c(F)c3[nH]2)cc(C(C)(C)C)c1O	> 100	> 100	> 100	> 100	> 100	> 100	> 100	> 100	> 100	> 100	> 100	> 100	> 100	> 100	> 100	> 100	38	> 100	> 100	> 100
Cc1ccc(C2=NN(c3ccc(S(N)(=O)=O)cc3)C(c3cn(-c4ccccc4)nc3-c3ccccc3)C2)cc1 (stereo not drawn)	73.3	> 100	3.19	> 100	3.32	> 100	39.2	> 100	81	> 100	6.35	> 100	4.22	> 100	3.85	61.6	5.92	> 100	3.07	42
CC(=O)[O][Bi]([c]1ccccc1)[c]1ccccc1	17.5	33.4	2.62	7.97	16.1	30.7	–	–	–	–	2.59	5.99	18.1	36.4	2.94	9.32	–	–	4.29	13.7
COc1cc2c3c(n(CCCN4CCCC(O)C4)c(=O)c2cc1OC)-c1cc2c(cc1C3=O)OCO2 (stereo not drawn)	< 0.005	2.65	0.0107	1.31	0.0879	1.15	0.885	2.28	5.71	14.8	0.0961	0.447	< 0.005	6.13	0.898	3.21	–	–	0.0157	0.925
CCN(CC)CC[n+]1cc2cc(OC)c(OC)cc2c2ccc3cc4c(cc3c21)OCO4	0.429	2.36	0.317	2.41	0.395	2.25	1.48	2.93	1.1	2.5	0.303	1.73	0.288	1.04	1.11	2.88	0.248	2.12	0.404	1.66
O=C(O)c1ccccc1Nc1ccc2nnc(-c3ccncc3)n2n1	13.3	40.1	2.85	24.6	13.4	31.9	12.7	29.6	7.97	26.3	–	–	4.27	24	2.59	8.33	5.23	> 100	4.09	21
Cc1ccc(NC(=O)c2cc3ccccc3cc2O)c(C)c1.Cc1ccc(NC(=O)c2cc3ccccc3cc2[O-])c(C)c1.[Ni+2]	3.89	14.3	3.45	–	–	5.38	6.42	88.1	3.4	14.3	1.94	6.1	2.77	14.3	2.44	7.55	–	–	2.79	11.4
Cc1cc2nc(C(Cl)Cl)nc(-c3ccccc3)n2n1	3.48	15.9	4.06	> 100	4.77	37.9	3.54	13.1	9.11	28.1	5.04	44.3	1.97	5.13	17.4	> 100	2.3	> 100	3.45	24
Cc1ccc2c(c1)C=CC(C#N)N2C(=O)Oc1ccccc1 (stereo not drawn)	–	–	–	40.2	–	97.9	–	> 100	–	> 100	–	52.6	–	> 100	–	48.2	–	46.8	–	> 100
COc1cnc2c(c1)C(=O)c1c-2n(CCCNC(C)C)c(=O)c2cc([N+](=O)[O-])ccc12	0.0309	0.221	0.0115	1.07	0.211	3.07	0.121	0.351	0.118	0.356	0.0487	0.738	0.0191	0.126	0.107	0.314	–	0.226	–	–
CN1CCN(CC(=O)N2c3cccc4cccc(c34)N(C(=O)CN3CCN(C)CC3)C2c2cn(-c3ccccc3)nc2-c2cccc([N+](=O)[O-])c2)CC1	1.9	3.73	1.75	3.39	2.8	10.4	1.81	3.36	1.85	3.49	1.76	4.33	2.23	4.98	1.67	3.26	–	–	1.65	3.1
Cc1nn(C)c2cc(N(C)c3ccnc(Nc4cccc(S(N)(=O)=O)c4)n3)ccc12	10.1	> 25	7.11	> 25	7.17	> 25	9	> 25	4.72	21.8	6.82	> 25	7.87	> 25	8.69	> 23.5	–	–	7.43	> 25
COc1ccc2nc(-c3cc4c([nH]c5ccccc54)c(-c4ccc(F)c(F)c4)n3)[nH]c2c1	–	–	3.23	17.1	3.25	22.5	12.7	27	16.3	34.3	1.55	4.29	2.97	12.5	6.3	22.5	1.97	6.7	2.05	4.11
CC1=CC(=O)c2ccc(C)cc2C1=O	–	31.6	–	11.3	–	44.1	–	22.7	–	–	–	6.36	–	32.4	–	25	–	–	–	15.1

— PubChem BioAssay (NCI)
